Reference: US12679843B2, “Pyrrolopyrimidine amines as complement inhibitors” (BioCryst Pharmaceuticals, Inc., priority 2020, dated 2026)

biological target: Factor D (Homo sapiens, UniProt P00746); assay: Factor D esterolytic assay (Z-Lys-SBzl thioester substrate, DTNB, 405 nm); format: biochemical; conditions: substrate Z-Lys-SBzl 1.29 mM, 100 mM HEPES, 500 mM NaCl, pH 7.5, 10% DMSO, tested a minimum of three times
How it was run: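 Run in pH 7.5 HEPES (100 mM) with 500 mM NaCl and 10% DMSO, with compound preincubated at room temperature or not before adding 1.29 mM Z-Lys-SBzl. Free thiol released by Factor D reacts with DTNB, and rate is followed at 405 nm minus 690 nm over 600 s. IC50 derives from rate-based inhibition, minimum three replicates.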

Chain of Factor D (P00746 26-253): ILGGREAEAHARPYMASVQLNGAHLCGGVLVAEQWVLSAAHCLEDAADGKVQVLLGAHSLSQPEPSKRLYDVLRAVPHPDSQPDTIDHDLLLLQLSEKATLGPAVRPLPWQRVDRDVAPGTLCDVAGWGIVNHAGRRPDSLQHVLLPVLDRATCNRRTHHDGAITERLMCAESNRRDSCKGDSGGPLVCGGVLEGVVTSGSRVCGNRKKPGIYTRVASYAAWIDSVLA

SMILES | IC50
Nc1ncnc2c1c(-c1ccc3cc[nH]c3c1)cn2CC(=O)N1C[C@H](F)C[C@H]1C(=O)NCc1cccc(Cl)c1F [Compound 137b, (2S,4R)-1-(2-(4-amino-5-(1H-indol-6-yl)-7H-pyrrolo[2,3-d]pyrimidin-7-yl)acetyl)-N-(3-chloro-2-fluorobenzyl)-4-fluoropyrrolidine-2-carboxamide] | < 100 nM
Nc1ncnc2c(CC(=O)N3C[C@H](F)C[C@H]3C(=O)NCc3cccc(Cl)c3F)cccc12 [Compound 138d, (2S,4R)-1-(2-(4-aminoquinazolin-8-yl)acetyl)-N-(3-chloro-2-fluorobenzyl)-4-fluoropyrrolidine-2-carboxamide] | 100 to 1000 nM
Nc1ncnc2c1c(-c1ccc3[nH]ccc3c1)cn2CC(=O)N1C[C@H](F)C[C@H]1C(=O)NCc1cccc(Cl)c1F [Compound 139b, (2S,4R)-1-(2-(4-amino-5-(1H-indol-5-yl)-7H-pyrrolo[2,3-d]pyrimidin-7-yl)acetyl)-N-(3-chloro-2-fluorobenzyl)-4-fluoropyrrolidine-2-carboxamide] | < 100 nM
NC(=O)c1cn(CC(=O)N2C[C@H](F)C[C@H]2C(=O)NCc2cccc(Cl)c2F)c2ncnc(N)c12 [Compound 140a, 4-amino-7-(2-((2S,4R)-2-((3-chloro-2-fluorobenzyl)carbamoyl)-4-fluoropyrrolidin-1-yl)-2-oxoethyl)-7H-pyrrolo[2,3-d]pyrimidine-5-carboxamide] | > 1000 nM
NCc1cn(CC(=O)N2C[C@H](F)C[C@H]2C(=O)NCc2cccc(Cl)c2F)c2ncnc(N)c12 [Compound 141a, (2S,4R)-1-(2-(4-amino-5-(aminomethyl)-7H-pyrrolo[2,3-d]pyrimidin-7-yl)acetyl)-N-(3-chloro-2-fluorobenzyl)-4-fluoropyrrolidine-2-carboxamide] | > 1000 nM
Cc1nc(N)c2cnn(CC(=O)N3C[C@H](F)C[C@H]3C(=O)NCc3cccc(Cl)c3F)c2n1 [Compound 142d, (2S,4R)-1-(2-(4-amino-6-methyl-1H-pyrazolo[3,4-d]pyrimidin-1-yl)acetyl)-N-(3-chloro-2-fluorobenzyl)-4-fluoropyrrolidine-2-carboxamide] | > 1000 nM
Nc1ncnc2c1c(-c1ccoc1)cn2CC(=O)N1C[C@H](F)C[C@H]1C(=O)NCc1cccc(Cl)c1F [Compound 143d, (2S,4R)-1-(2-(4-amino-5-(furan-3-yl)-7H-pyrrolo[2,3-d]pyrimidin-7-yl)acetyl)-N-(3-chloro-2-fluorobenzyl)-4-fluoropyrrolidine-2-carboxamide] | 100 to 1000 nM
NC(=O)c1cnc2c(ccn2CC(=O)N2C[C@H](F)C[C@H]2C(=O)NCc2cccc(Cl)c2F)c1N [Compound 144g, 4-amino-1-(2-((2S,4R)-2-((3-chloro-2-fluorobenzyl)carbamoyl)-4-fluoropyrrolidin-1-yl)-2-oxoethyl)-1H-pyrrolo[2,3-b]pyridine-5-carboxamide] | 100 to 1000 nM
O=C(NCc1cccc(Cl)c1F)[C@@H]1C[C@@H](F)CN1C(=O)Cn1ccc2c3[nH]c(=O)[nH]c(=O)c3cnc21 [Compound 145a, (2S,4R)—N-(3-chloro-2-fluorobenzyl)-1-(2-(2,4dioxo-3,4dihydro-1H-pyrrolo[3′,2′:5,6]pyrido[4,3-d]pyrimidin-7 (2H)-yl)acetyl)-4-fluoropyrrolidine-2-carboxamide] | 100 to 1000 nM
COC(=O)c1cn(CC(=O)N2C[C@H](F)C[C@H]2C(=O)NCc2cccc(Cl)c2F)c2ncnc(N)c12 [Compound 146a, methyl 4-amino-7-(2-((2S,4R)-2-((3-chloro-2-fluorobenzyl)carbamoyl)-4-fluoropyrrolidin-1-yl)-2-oxoethyl)-7H-pyrrolo[2,3-d]pyrimidine-5-carboxylate] | > 1000 nM
COC(=O)c1cnc2c(ccn2CC(=O)N2C[C@H](F)C[C@H]2C(=O)NCc2cccc(Cl)c2F)c1N [Compound 147a, methyl 4-amino-1-(2-((2S,4R)-2-((3-chloro-2-fluorobenzyl)carbamoyl)-4-fluoropyrrolidin-1-yl)-2-oxoethyl)-1H-pyrrolo[2,3-b]pyridine-5-carboxylate] | > 1000 nM
Nc1ncnc2c1c(I)cn2CC(=O)N1C[C@H](F)C[C@H]1C(=O)NCc1cccc(Cl)c1F [Compound 148d, (2S,4R)-1-(2-(4-amino-5-iodo-7H-pyrrolo[2,3-d]pyrimidin-7-yl)acetyl)-N-(3-chloro-2-fluorobenzyl)-4-fluoropyrrolidine-2-carboxamide] | 100 to 1000 nM
Nc1ncnc2c1c(-c1ccc[nH]1)cn2CC(=O)N1C[C@H](F)C[C@H]1C(=O)NCc1cccc(Cl)c1F [Compound 149b, (2S,4R)-1-(2-(4-amino-5-(1H-pyrrol-2-yl)-7H-pyrrolo[2,3-d]pyrimidin-7-yl)acetyl)-N-(3-chloro-2-fluorobenzyl)-4-fluoropyrrolidine-2-carboxamide] | 100 to 1000 nM
Cc1cn(CC(=O)N2C[C@H](F)C[C@H]2C(=O)NCc2cccc(Cl)c2F)c2ncnc(N)c12 [Compound 150d, (2S,4R)-1-(2-(4-amino-5-methyl-7H-pyrrolo[2,3-d]pyrimidin-7-yl)acetyl)-N-(3-chloro-2-fluorobenzyl)-4-fluoropyrrolidine-2-carboxamide] | 100 to 1000 nM
Nc1c(C(=O)O)cnc2c1ccn2CC(=O)N1C[C@H](F)C[C@H]1C(=O)NCc1cccc(Cl)c1F [Compound 151a, 4-amino-1-(2-((2S,4R)-2-((3-chloro-2-fluorobenzyl)carbamoyl)-4-fluoropyrrolidin-1-yl)-2-oxoethyl)-1H-pyrrolo[2,3-b]pyridine-5-carboxylic acid] | 100 to 1000 nM
Cc1nc2c(N)ncnc2n1CC(=O)N1C[C@H](F)C[C@H]1C(=O)NCc1cccc(Cl)c1F [Compound 152d, (2S,4R)-1-(2-(6-amino-8-methyl-9H-purin-9-yl)acetyl)-N-(3-chloro-2-fluorobenzyl)-4-fluoropyrrolidine-2-carboxamide] | 100 to 1000 nM
Nc1ncnc2c1c(C(=O)O)cn2CC(=O)N1C[C@H](F)C[C@H]1C(=O)NCc1cccc(Cl)c1F [Compound 153a, 4-amino-7-(2-((2S,4R)-2-((3-chloro-2-fluorobenzyl)carbamoyl)-4-fluoropyrrolidin-1-yl)-2-oxoethyl)-7H-pyrrolo[2,3-d]pyrimidine-5-carboxylic acid] | > 1000 nM
CSc1cn(CC(=O)N2[C@@H]3C[C@@H]3C[C@H]2C(=O)Nc2cccc(Br)n2)c2ncnc(N)c12 [Compound 154e, (1R,3S,5R)-2-(2-(4-amino-5-(methylthio)-7H-pyrrolo[2,3-d]pyrimidin-7-yl)acetyl)-N-(6-bromopyridin-2-yl)-2-azabicyclo[3.1.0]hexane-3-carboxamide] | 100 to 1000 nM
Nc1c(C(=O)O)cnc2c1ccn2CC(=O)N1[C@@H]2C[C@@H]2C[C@H]1C(=O)Nc1cccc(Br)n1 [Compound 155f, 4-amino-1-(2-((1R,3S,5R)-3-((6-bromopyridin-2-yl)carbamoyl)-2-azabicyclo[3.1.0]hexan-2-yl)-2-oxoethyl)-1H-pyrrolo[2,3-b]pyridine-5-carboxylic acid] | > 1000 nM
Nc1c(C=O)cnc2c1ccn2CC(=O)N1[C@@H]2C[C@@H]2C[C@H]1C(=O)Nc1cccc(Br)n1 [Compound 156e, (1R,3S,5R)-2-(2-(4-amino-5-formyl-1H-pyrrolo[2,3-b]pyridin-1-yl)acetyl)-N-(6-bromopyridin-2-yl)-2-azabicyclo[3.1.0]hexane-3-carboxamide] | 100 to 1000 nM
